The values that follow come from patent US20250122222A1, “HETEROCYCLIC COMPOUNDS AND METHODS OF USE” (AMGEN INC., priority 2021, published 2025).

Assay [1] deals with Phosphorylation of ERK1/2 in AsPC-1 cells. Put plainly: Phospho-ERK1/2 MSD assay. As to conditions: Homo sapiens, ASPC1, read-out: 2 h p-ERK (AsPC-1 cells), IC50 (μM), 2 hours compound treatment. The format is cell-based. How it is done:
Sixteen hours prior to compound treatment, AsPC-1 cells were seeded in 96-well cell culture plates at a density of 25,000 cells/well and incubated at 37° C., 5% CO2. A compound dose-response titration was diluted in growth media, added to appropriate wells of a cell culture plate, and then incubated at 37° C., 5% CO2 for 2 hours.

The target of assay [2] is His-tagged KRAS G12D protein (Homo sapiens, UniProt P01116, G12D). Nature of the assay: KRAS G12D TR-FRET assay (binding). As to conditions: biotinylated KRPep-2d substrate, GDP in assay buffer. A general note: In TR-FRET formats the signal depends on donor and acceptor labels being close together.
His-tagged KRAS G12D protein, sequence (P01116 1-188 isoform P01116-2 G12D): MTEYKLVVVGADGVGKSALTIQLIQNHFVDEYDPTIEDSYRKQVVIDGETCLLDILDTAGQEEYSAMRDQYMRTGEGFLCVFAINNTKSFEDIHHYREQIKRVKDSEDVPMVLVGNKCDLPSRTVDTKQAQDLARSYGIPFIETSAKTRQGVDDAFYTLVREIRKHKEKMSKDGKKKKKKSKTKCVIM
Method: The plate was incubated for 30 minutes at room temperature. Biotinylated KRPep-2d substrate (Amgen) was diluted to 20 nM in Assay Buffer and 2 L was added to all wells and incubated for 1 hour at room temperature. Detection Reagent (0.4 nM LANCE Eu-W1024 Anti-6xHis (Perkin Elmer AD0401), 5 nM streptavidin-d^2 (Cisbio 610SADLA)) was prepared in Assay Buffer, then 4 μL was added to the plate and incubated for 1 hour at room temperature.

On to `CCc1c(F)ccc2cc(O)cc(-c3ncc4c(N5CC6CC(C#N)C(C5)O6)nc(OC[C@@]56CCCN5C[C@H](F)C6)nc4c3F)c12` (single isomer, unassigned) [Example 72], for which the values for the IC50 in assay [1] and in assay [2] were 0.308 µM and 6 nM, respectively.

With `CCc1c(F)ccc2cc(O)cc(-c3ncc4c(N5CCOC[C@@](C)(O)C5)nc(OC[C@@]56CCCN5C[C@H](F)C6)nc4c3Cl)c12` (single isomer, unassigned) [Example 80], the figures for the IC50 in assay [1] and in assay [2] were 0.024 µM and 4 nM, respectively.

Regarding `CCc1cccc2cc(O)cc(-c3ncc4c(N5CCCOCC5)nc(OC[C@@]56CCCN5C[C@H](F)C6)nc4c3F)c12` [Example 2, 5-Ethyl-4-(8-fluoro-2-(((2R,7aS)-2-fluorotetrahydro-1H-pyrrolizin-7a(5H)-yl)methoxy)-4-(1,4-oxazepan-4-yl)pyrido[4,3-d]pyrimidin-7-yl)naphthalen-2-ol], the IC50 in assay [1] was determined as 0.033 µM; in assay [2], 1 nM.

For `Oc1cc(-c2ncc3c(N4CCCOCC4)nc(OC[C@@]45CCCN4C[C@H](F)C5)nc3c2F)c2c(F)c(F)ccc2c1` [Example 3, 5,6-Difluoro-4-(8-fluoro-2-(((2R,7aS)-2-fluorotetrahydro-1H-pyrrolizin-7a(5H)-yl)methoxy)-4-(1,4-oxazepan-4-yl)pyrido[4,3-d]pyrimidin-7-yl)naphthalen-2-ol], the IC50 in assay [1] was 0.047 µM; in assay [2], 2 nM.

As for `CCc1c(F)ccc2cc(O)cc(-c3ncc4c(N5CCSCC5)nc(OC[C@@]56CCCN5C[C@H](F)C6)nc4c3F)c12` [Example 4, 5-Ethyl-6-fluoro-4-(8-fluoro-2-(((2R,7aS)-2-fluorotetrahydro-1H-pyrrolizin-7a(5H)-yl)methoxy)-4-thiomorpholino-pyrido[4,3-d]pyrimidin-7-yl)naphthalen-2-ol], the values for the IC50 in assay [1] and in assay [2] were 0.486 µM and 4 nM, respectively.

For the compound `CCc1c(F)ccc2cc(O)cc(-c3ncc4c(N5CCCSCC5)nc(OC[C@@]56CCCN5C[C@H](F)C6)nc4c3F)c12` [Example 5, 5-Ethyl-6-fluoro-4-(8-fluoro-2-(((2R,7aS)-2-fluorotetrahydro-1H-pyrrolizin-7a(5H)-yl)methoxy)-4-(1,4-thiazepan-4-yl)pyrido[4,3-d]pyrimidin-7-yl)naphthalen-2-ol], the IC50 in assay [1] amounted to 0.088 µM; in assay [2], 2 nM.

Consider `CCc1c(F)ccc2cc(O)cc(-c3ncc4c(N5[C@@H]6CC[C@H]5COC6)nc(OC[C@@]56CCCN5C[C@H](F)C6)nc4c3F)c12` [Example 6, 4-(4-((1R,5S)-3-Oxa-8-azabicyclo[3.2.1]octan-8-yl)-8-fluoro-2-(((2R,7aS)-2-fluorotetrahydro-1H-pyrrolizin-7a(5H)-yl)methoxy)pyrido [4,3-d]pyrimidin-7-yl)-5-ethyl-6-fluoronaphthalen-2-ol], for which the IC50 worked out at 1.77 µM in assay [1] and 69 nM in assay [2].

With `CCc1cccc2cc(O)cc(-c3ncc4c(N5CCOCC(F)(F)C5)nc(OC[C@@]56CCCN5C[C@H](F)C6)nc4c3F)c12` [Example 7, 4-(4-(6,6-Difluoro-1,4-oxazepan-4-yl)-8-fluoro-2-(((2R,7aS)-2-fluorotetrahydro-1H-pyrrolizin-7a(5H)-yl)methoxy)pyrido [4,3-d]pyrimidin-7-yl)-5-ethylnaphthalen-2-ol], the IC50 in assay [1] was determined as 0.046 µM; in assay [2] it was 2 nM.

For `CN1C[C@H](F)C[C@H]1COc1nc(N2CCCOCC2)c2cnc(-c3cc(O)cc4ccc(F)c(F)c34)c(F)c2n1` [Example 8, 5,6-Difluoro-4-(8-fluoro-2-(((2S,4R)-4-fluoro-1-methylpyrrolidin-2-yl)methoxy)-4-(1,4-oxazepan-4-yl)pyrido[4,3-d]pyrimidin-7-yl)naphthalen-2-ol], the IC50 in assay [1] amounted to 0.103 µM; in assay [2] it was 5 nM.

Take `CCc1c(F)ccc2cc(O)cc(-c3ncc4c(N5CCCOCC5)nc(OC[C@@H]5C[C@@H](F)CN5C)nc4c3F)c12` [Example 9, 5-Ethyl-6-fluoro-4-(8-fluoro-2-(((2S,4R)-4-fluoro-1-methylpyrrolidin-2-yl)methoxy)-4-(1,4-oxazepan-4-yl)pyrido[4,3-d]pyrimidin-7-yl)naphthalen-2-ol]: the figures for the IC50 in assay [1] and in assay [2] were 0.353 µM and 8 nM, respectively.

For `CCc1cccc2cc(O)cc(-c3ncc4c(N5CC6COC(C6)C5)nc(OC[C@@]56CCCN5C[C@H](F)C6)nc4c3F)c12` (stereo partly drawn) [Example 10, 4-(4-(6-Oxa-3-azabicyclo[3.2.1]octan-3-yl)-8-fluoro-2-(((2R,7aS)-2-fluorotetrahydro-1H-pyrrolizin-7a(5H)-yl)methoxy)pyrido [4,3-d]pyrimidin-7-yl)-5-ethylnaphthalen-2-ol], the IC50 in assay [1] is 0.277 µM; in assay [2] it was 8 nM.

Turning to `C#Cc1cccc2cc(O)cc(-c3ncc4c(N5CCCOCC5)nc(OC[C@@H]5C[C@@H](F)CN5C)nc4c3F)c12` [Example 12, 5-Ethynyl-4-(8-fluoro-2-(((2S,4R)-4-fluoro-1-methylpyrrolidin-2-yl)methoxy)-4-(1,4-oxazepan-4-yl)pyrido[4,3-d]pyrimidin-7-yl)naphthalen-2-ol], the IC50 in assay [1] came out at 0.131 µM; in assay [2], 4 nM.

Regarding `Oc1cc(-c2ncc3c(N4CCCOCC4)nc(OCC45CCCN4CCC5)nc3c2F)c2ccccc2c1` [Example 13, 4-(8-Fluoro-4-(1,4-oxazepan-4-yl)-2-((tetrahydro-1H-pyrrolizin-7a(5H)-yl)methoxy)pyrido [4,3-d]pyrimidin-7-yl)naphthalen-2-ol], the values for the IC50 in assay [1] and in assay [2] were 4.18 µM and 11 nM, respectively.

`Cc1c(Cl)cc2[nH]ncc2c1-c1ncc2c(N3CCCOCC3)nc(OC[C@@]34CCCN3C[C@H](F)C4)nc2c1F` [Example 15, 4-(7-(6-Chloro-5-methyl-1H-indazol-4-yl)-8-fluoro-2-(((2R,7aS)-2-fluorotetrahydro-1H-pyrrolizin-7a(5H)-yl)methoxy)pyrido [4,3-d]pyrimidin-4-yl)-1,4-oxazepane]: the IC50 in assay [1] was 4.51 µM; in assay [2], 36 nM.

As to `CN1C[C@H](F)C[C@H]1COc1nc(N2CCCOCC2)c2cnc(-c3cc(O)cc4ccccc34)c(F)c2n1` [Example 16, 4-(8-Fluoro-2-(((2S,4R)-4-fluoro-1-methylpyrrolidin-2-yl)methoxy)-4-(1,4-oxazepan-4-yl)pyrido[4,3-d]pyrimidin-7-yl)naphthalen-2-ol], the figures for the IC50 in assay [1] and in assay [2] were 4.83 µM and 73 nM, respectively.

Consider `CCc1c(F)ccc2cc(O)cc(-c3ncc4c(N5CCCOCC5)nc(OCC5(CN6CCOCC6)CC5)nc4c3F)c12` [Example 17, 5-Ethyl-6-fluoro-4-(8-fluoro-2-((1-(morpholinomethyl)cyclopropyl)methoxy)-4-(1,4-oxazepan-4-yl)pyrido[4,3-d]pyrimidin-7-yl)naphthalen-2-ol], for which the half-inhibitory concentration (IC50) in assay [1] came to 0.189 µM; in assay [2], 3 nM.

For the compound `Oc1cc(Cl)c(C2CC2)c(-c2ncc3c(N4CCCOCC4)nc(OC[C@@]45CCCN4C[C@H](F)C5)nc3c2F)c1` [Example 18, 3-Chloro-4-cyclopropyl-5-(8-fluoro-2-(((2R,7aS)-2-fluorotetrahydro-1H-pyrrolizin-7a(5H)-yl)methoxy)-4-(1,4-oxazepan-4-yl)pyrido[4,3-d]pyrimidin-7-yl)phenol], the IC50 in assay [1] turned out to be 0.162 µM; in assay [2] it was 2 nM.

In the case of `Oc1cc(-c2ncc3c(N4C[C@H]5COC[C@@H](C4)O5)nc(OC[C@@]45CCCN4C[C@H](F)C5)nc3c2F)c2c(F)c(F)ccc2c1` [Example 19, 4-(4-((1R,5S)-3,9-Dioxa-7-azabicyclo[3.3.1]nonan-7-yl)-8-fluoro-2-(((2R,7aS)-2-fluorotetrahydro-1H-pyrrolizin-7a(5H)-yl)methoxy)pyrido [4,3-d]pyrimidin-7-yl)-5,6-difluoronaphthalen-2-ol], the 50% inhibitory concentration (IC50) came to 1.1 µM in assay [1] and 9 nM in assay [2].

For the compound `CCc1cccc2cc(O)cc(-c3ncc4c(N5CCCOCC5)nc(OCC5(CN6CCOCC6)CC5)nc4c3F)c12` [Example 20, 5-Ethyl-4-(8-fluoro-2-((1-(morpholinomethyl)cyclopropyl)methoxy)-4-(1,4-oxazepan-4-yl)pyrido[4,3-d]pyrimidin-7-yl)naphthalen-2-ol], the IC50 was determined as 0.336 µM in assay [1] and 5 nM in assay [2].

Turning to `CCc1c(F)ccc2cc(O)cc(-c3ncc4c(N5C[C@H]6COC[C@@H](C5)O6)nc(OC[C@@]56CCCN5C[C@H](F)C6)nc4c3F)c12` [Example 21, 4-(4-((1R,5S)-3,9-Dioxa-7-azabicyclo[3.3.1]nonan-7-yl)-8-fluoro-2-(((2R,7aS)-2-fluorotetrahydro-1H-pyrrolizin-7a(5H)-yl)methoxy)pyrido [4,3-d]pyrimidin-7-yl)-5-ethyl-6-fluoronaphthalen-2-ol], the figures for the IC50 in assay [1] and in assay [2] were 0.621 µM and 11 nM, respectively.

Consider `Oc1cc(Cl)c(C2CC2)c(-c2ncc3c(N4CCCOCC4)nc(OCC4(CN5CCOCC5)CC4)nc3c2F)c1` [Example 22, 3-Chloro-4-cyclopropyl-5-(8-fluoro-2-((1-(morpholinomethyl)cyclopropyl)methoxy)-4-(1,4-oxazepan-4-yl)pyrido[4,3-d]pyrimidin-7-yl)phenol], for which the IC50 was determined as 1.29 µM in assay [1] and 11 nM in assay [2].

For the compound `CCc1cccc2cc(O)cc(-c3ncc4c(N5C[C@H]6COC[C@@H](C5)O6)nc(OC[C@@]56CCCN5C[C@H](F)C6)nc4c3F)c12` [Example 23, 4-(4-((1R,5S)-3,9-Dioxa-7-azabicyclo[3.3.1]nonan-7-yl)-8-fluoro-2-(((2R,7aS)-2-fluorotetrahydro-1H-pyrrolizin-7a(5H)-yl)methoxy)pyrido [4,3-d]pyrimidin-7-yl)-5-ethylnaphthalen-2-ol], the IC50 in assay [1] turned out to be 1.15 µM; in assay [2] it was 29 nM.

Broadly, the IC50 is the concentration at which inhibition is half-maximal.
